This is an account of results in article PMC3663881 (Journal of biomolecular screening, 2013).

For one series, the target named is RhaR (Escherichia coli, UniProt P09378). As to the kind of experiment: EMSA, inhibition of DNA binding by purified protein. A general note: A gel shift assay detects complexes by their altered migration in electrophoresis.
The next series has as its target RhaS (Escherichia coli, UniProt P09377, L201R). The description is as above.
A further series deals with T1, GB1b-RhaR (UniProt P09378 1-282).
T1 sequence: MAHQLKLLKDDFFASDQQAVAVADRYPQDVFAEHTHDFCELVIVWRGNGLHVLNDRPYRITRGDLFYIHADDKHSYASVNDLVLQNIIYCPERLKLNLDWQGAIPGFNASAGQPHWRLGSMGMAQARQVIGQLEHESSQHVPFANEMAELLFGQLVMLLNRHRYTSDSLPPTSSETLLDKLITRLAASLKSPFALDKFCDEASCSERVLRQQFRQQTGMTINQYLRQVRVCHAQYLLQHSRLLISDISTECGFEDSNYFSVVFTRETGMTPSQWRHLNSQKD
As to the kind of experiment: EMSA.

A further series deals with LacI (UniProt P03023 1-360). Briefly: EMSA.
Sequence of LacI (P03023 whole entry): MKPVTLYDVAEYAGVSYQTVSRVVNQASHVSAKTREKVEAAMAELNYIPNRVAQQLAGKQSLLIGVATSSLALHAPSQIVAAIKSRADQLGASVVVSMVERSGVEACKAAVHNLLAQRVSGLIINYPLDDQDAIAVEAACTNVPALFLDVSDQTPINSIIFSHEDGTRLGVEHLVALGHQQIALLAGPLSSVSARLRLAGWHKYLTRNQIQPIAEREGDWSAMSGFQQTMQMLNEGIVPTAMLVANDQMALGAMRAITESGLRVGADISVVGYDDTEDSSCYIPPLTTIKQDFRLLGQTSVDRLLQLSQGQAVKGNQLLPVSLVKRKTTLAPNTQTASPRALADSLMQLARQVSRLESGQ

Sequence of RhaS (P09377 whole entry L201R): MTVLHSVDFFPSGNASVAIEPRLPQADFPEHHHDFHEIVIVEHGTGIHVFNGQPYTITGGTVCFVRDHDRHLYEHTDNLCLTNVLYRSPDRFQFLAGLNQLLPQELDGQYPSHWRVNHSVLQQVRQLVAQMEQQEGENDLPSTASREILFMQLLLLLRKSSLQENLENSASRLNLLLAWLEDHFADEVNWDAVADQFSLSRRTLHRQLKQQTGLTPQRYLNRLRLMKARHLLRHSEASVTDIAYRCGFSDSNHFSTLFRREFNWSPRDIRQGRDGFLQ

`CCCCN1C=C(c2ccc3ccccc3n2)C(C[N+](=O)[O-])c2ccccc21` (stereo not shown) [OSSL_051168, 1-butyl-4-nitromethyl-3-quinolin-2-yl-4H-quinoline]: the values for the IC50 on RhaR and on RhaS were roughly 140 µM and roughly 70 µM, respectively.

B1: RhaR site probe (oligos 3056/3287) (dsDNA)
DNA 1: CGCTGTATCTTGAAAAATCGACGTTTTTTACGTGGTTTTCCGTCGAAAATTTAAGGTAAGAAC
DNA 2: GTTCTTACCTTAAATTTTCGACGGAAAACCACGTAAAAAACGTCGATTTTTCAAGATACAGCG
In the case of B1, the binding result with GB1b-RhaR is recorded as “binds”.

B2: lac O1 probe (IR O1-For/O1-Rev) (dsDNA)
DNA 1: TGTTGTGTGGAATTGTGAGCGGATAACAATTTCACACAGG
DNA 2: CCTGTGTGAAATTGTTATCCGCTCACAATTCCACACAACA
With B2, the binding result with LacI was “binds”.
